According to publication PMC8533403, “Nostocyclopeptides as New Inhibitors of 20S Proteasome” (Biomolecules, 2021):
Values belong to the molecule of their own block, whether it stands above or below them. Where a SMILES comes first, the peptide text is derived from it. [ ]: non-standard residue; d: D form. The star is where a group is joined. ξ: configuration not given here. ξPro(4ξ-Me) = CC1CNC(C(=O)O)C1; Cbz = O=C(OCc1ccccc1)*

Experiments:
[1] = system: 20S proteasome T-L activity; conditions: cited from earlier work
Description: (§1) The 26S proteasome is a large (2.4 MDa), multifunctional and ATP-dependent enzymatic complex with chymotrypsin-like (CT-L), trypsin-like (T-L), and caspase-like (C-L) activities. In eukaryotic organisms, it recognizes and degrades proteins with covalently attached ubiquitin (8.5 kDa protein). The 26S proteasome is composed of a 20S barrel-shaped core particle (700 kDa) responsible for proteolytic activity and one or two 19S (890 kDa) regulatory subunits with ubiquitin-binding sites. The 20S proteasome also occurs as a free complex that degrades protein ...

[2] = system: 20S proteasome C-L activity; conditions: cited from earlier work
Description: as §1

[3] = system: 20S proteasome CT-L activity; conditions: cited from earlier work
Description: as §1

proteasome CT-L activity [4] = conditions: cited from earlier work
Description: as §1

[5] = system: Saccharomyces cerevisiae 20S proteasome CT-L activity; conditions: cited from earlier work
Experimental: (§2) Nostodione A from Scytonema hofmannii, which inhibits CT-L activity (IC50 50 μM), contains indole moiety fused with diketone system.

proteasome = system: proteasome; parameters: method as in PMID 18801655; conditions: read-out: IC50, proteasome inhibition; cited from earlier work
Experimental: In the current work, to unequivocally state which of the cyanobacterial metabolites are responsible for this activity, the six isolated Ncps were assayed.

[6] = target: T1, human 20S proteasome (h20S), chymotrypsin-like (CT-L) activity (Homo sapiens, UniProt P28074); assay: Human 20S inhibition assay, chymotrypsin-like activity (Suc-LLVY-AMC); format: biochemical; conditions: Suc-LLVY-AMC 100 µM, pH 8.0, 37 °C
T1 construct: Human 20S proteasome (h20S) isolated from erythrocytes was used; from tissue; host or cells: human erythrocytes
Experimental: (§3) The 20S proteasome inhibition assay was performed following the procedure of Czerwonka et al.. Human 20S proteasome (h20S) isolated from erythrocytes was used. Latent h20S was activated with 0.01% SDS (sodium dodecyl sulfate). The final concentration of the proteasome was 1 µg mL^−1 (1.4 nM). The fluorogenic substrates, Suc-LLVY-AMC, Boc-LRR-AMC, and Z-LLE-AMC, were used as probes in the chymotrypsin-like, trypsin, and caspase-like activity assays, respectively, at a final concentration of 100 µM. Stock solutions of Ncps (10 mM) were prepared in dimethyl sulfoxide (DMSO) and were tested in the concentration range of 5 to 50 μM. The content of DMSO never exceeded 3% of the final reaction volume. The assays were performed in a 96-well plate in 50 mM TrisHCl, pH 8.0, at 37 °C. The percentage of the substrate hydrolysis was measured by the amount of the released AMC (aminomethyl coumarin) using Tecan Infinite M200 Pro (λ = 380–460 nm) spectrofluorimeter (Tecan Trading AG, Männedorf, Switzerland). The fluorescence measurements were performed at 2-min intervals for 60 min. The activity of h20S in the presence of isolated Ncps was calculated in relation to the control (DMSO). The known proteasome inhibitor PR11 [28] was used to ensure the correctness of the assay. The peptide at the final concentration of 0.2 µM decreases the relative CT-L activity of the h20S to 6% of the control.

[7] = target: T2, human 20S proteasome (h20S), trypsin-like (T-L) activity (Homo sapiens, UniProt Q99436); assay: Human 20S inhibition assay, trypsin-like activity (Boc-LRR-AMC); format: biochemical; conditions: tested 5 to 50 µM; Boc-LRR-AMC 100 µM; pH 8.0, 37 °C; no replications; Figure 2B
T2 construct: Human 20S proteasome (h20S) isolated from erythrocytes was used; from tissue; host or cells: human erythrocytes
Experimental: as §3

[8] = target: T3, human 20S proteasome (h20S), caspase-like (C-L) activity (Homo sapiens, UniProt P28072); assay: Human 20S inhibition assay, caspase-like activity (Z-LLE-AMC); format: biochemical; conditions: tested 5 to 50 µM; Z-LLE-AMC 100 µM; pH 8.0, 37 °C; no replications; Figure 2C
T3 construct: Human 20S proteasome (h20S) isolated from erythrocytes was used; from tissue; host or cells: human erythrocytes
Experimental: as §3

20S complex (proteasome) = conditions: read-out: IC50, catalytic activity of proteasome; cited from earlier work
Experimental: as §2

proteasome CT-L activity [9] = conditions: cited from earlier work; remark: listed apart in the source
Experimental: as §2

Molecule: CCCCCCCCC[C@@H](O)CC(=O)N[C@@H](CC(N)=O)C(=O)N[C@@H](CCC(N)=O)C(=O)N[C@H](C=O)CC(C)C [fellutamide B]
IC50 [1]: 2 µM | IC50 [2]: 1.2 µM | IC50 [3]: 0.0094 µM

Molecule: Tyropeptin A
effect on CT-L activity (proteasome CT-L activity [4]): inhibits mainly CT-L activity

Molecule: CCCCCC(=O)N[C@H](C(=O)N[C@@H](CC[S+](C)[O-])C(=O)N[C@@H](CC(C)C)C(=O)[C@@]1(C)CO1)C(C)C (some centres unmarked) [carmaphycin A]
inhibition of CT-L activity of the Saccharomyces cerevisiae 20S proteasome [5]: low nanomolar concentrations

Molecule: CC(C)C[C@@H](C=O)NC(=O)[C@H](CC(C)C)NC(=O)[C@H](CC(C)C)NC(=O)OCc1ccccc1 [MG-132] (Cbz-Leu-Leu-Leu-aldehyde)
IC50 (proteasome): 0.11 µM

Molecule: CCC(C)C(NC(=O)C(CCC(N)=O)NC(=O)CNC(=O)C(N)Cc1ccc(O)cc1)C(=O)NC(CO)C(=O)N1CC(C)CC1C(=O)NC(C=O)Cc1ccccc1 (stereo not drawn) [Ncp-A2-L, Tyr-Gly-Gln-Ile-Ser-MePro-Phe-H] (H-YGQIS[ξPro(4ξ-Me)]F-aldehyde; configuration not given here)
IC50 ([6]; h20S 1.4 nM, approximate (ca.)): ~50 µM

Molecule: CC(=O)N[C@@H](CC(C)C)C(=O)N[C@@H](CC(C)C)C(=O)N[C@H](C=O)CCCNC(=N)N [Leupeptin]
effect on T-L activity of the 20S proteasome [1]: inhibits T-L activity

effect on T-L activity of the human 20S proteasome [7]: did not modify | effect on C-L activity of the human 20S proteasome [8]: did not modify | effect on CT-L activity of the human 20S proteasome at 50 µM ([6]; applied at 50 µM, triplicate, Figure 2A): inhibited
Molecule: CC[C@H](C)[C@H](NC(=O)[C@@H](CCC(N)=O)NC(=O)CNC(=O)[C@@H](N)Cc1ccc(O)cc1)C(=O)N[C@@H](CO)C(=O)N1CCC[C@H]1C(=O)N[C@H](C=O)CC(C)C [Ncp-E2-L] (H-YG[dQ]ISPL-aldehyde; N-terminus assumed)

Molecule: scytonemide A
IC50 (20S complex (proteasome)): 0.096 µM

Molecule: O=C1C(=O)c2c([nH]c3ccccc23)/C1=C\c1ccc(O)cc1 [Nostodione A]
IC50 (proteasome CT-L activity [9]): 50 µM

Molecule: CCCCCC(=O)N[C@H](C(=O)N[C@@H](CCS(C)(=O)=O)C(=O)N[C@@H](CC(C)C)C(=O)[C@@]1(C)CO1)C(C)C [carmaphycin B]
inhibition of CT-L activity of the Saccharomyces cerevisiae 20S proteasome [5]: low nanomolar concentrations
